Results reported in US12070448B2, “Use of carbamate compound for prevention, alleviation or treatment of status epilepticus” (SK BIOPHARMACEUTICALS CO., LTD., priority 2018, dated 2024).

Columns and labels:
[1] = test system: low Mg2+-induced seizure-like events (SLEs) in CA1 pyramidal neurons of hippocampal slices; experiment: Whole-cell patch-clamp model of low Mg2+-induced seizure-like events in mouse hippocampal slices; type: cell-based; details: for Duration of SLE in comparison with before treatment of Test Compound, during treatment / Number of SLE in comparison with before treatment of Test Compound, during treatment: 100 μM; for Duration of SLE in comparison with before treatment of Test Compound, during treatment / Number of SLE in comparison with before treatment of Test Compound, during treatment / Duration of SLE in comparison with before treatment of Test Compound, after washing / Number of SLE in comparison with before treatment of Test Compound, after washing: mean±standard error; for Duration of SLE in comparison with before treatment of Test Compound, after washing / Number of SLE in comparison with before treatment of Test Compound, after washing: after washout of 100 μM
Protocol: (§1) Male mice (C57BL/6, 24-26 g) were used. The experimental animals were housed under a 12-hour light/dark cycle (lighting from 7 pm to 7 am) and maintained at a temperature of 22-25° C. and about 40 to 60% relative humidity. Food and water were provided ad libitum.
For whole-cell patch-clamp recording, the brain of the mouse was excised, and the hippocampal slices ([…]) were prepared with oxygenated artificial cerebrospinal fluid (ACSF) (124 mM NaCl, 3.0 mM KCl, 1.23 mM NaH2PO4, 2.2 mM CaCl2, 1.2 mM MgCl2, 26 mM NaHCO3, and 10 mM glucose, pH 7.4). All experiments were performed in visually guided CA1 pyramidal neurons, and a glass pipette (4-5 MΩ) was used for recording. After incubating the tissue for 1 hour, a single slice was submerged in a recording chamber and continuously superfused with oxygenated artificial cerebrospinal fluid (32° C.; 95% O2/5% CO2).
For low Mg^2+-induced seizure-like events (SLEs) measurement, 0 mM MgCl2 and 5.0 mM KCl were used. SLEs were defined by more than three spikes in a burst. Whole-cell patch-clamp currents were digitized with a MultiClamp 700B amplifier and a Digidata 1440 (Axon Instruments, CA), and the acquired data were analyzed with the pCLAMP version 10.2 (Axon Instruments) and the Mini Analysis Program (Synaptosoft).
Early SLEs (immediately after onset of SLEs): measurement of SLEs observed 20-30 minutes after the application of low Mg^2+ ACSF.
Late SLEs (after 1 hour incubation in low Mg^2+ ACSF): measurement of SLEs observed immediately after whole-cell rupture.
The treatment of the compound for measuring the effect of Test Compound was initiated 10-15 minutes after the occurrence of SLEs.
The effect of Test Compound was a comparison value (%) to the SLE value that occurred after the treatment of low Mg^2+ ACSF and before the treatment of Test Compound, and was represented as the mean±standard error. When there was a difference of p<0.05 in data by using Student's t-test, statistical significance was recognized.

[2] = test system: pilocarpine-induced status epilepticus; experiment: Pilocarpine-induced status epilepticus in mice; type: in vivo, mouse; details: for Mortality: 50 min
Protocol: as §1, with “21-24” for “24-26”, “libitum. The animals were randomly divided into the following groups. […]” for “libitum.”
Experimental Groups of Administering Positive Control and Test Compound 10 Minutes after Onset of Status Epilepticus • As a control, 13 mice intraperitoneally single administered with 30% PEG300 (vehicle) at a volume of 10 ml/kg • As a positive control, 12 mice intraperitoneally single administered valproic acid (VPA) at a dose of 200 mg/kg (10 ml/kg) • 13 Mice intraperitoneally single administered Test Compound at a dose of 25 mg/kg (10 ml/kg) Induction of Status Epilepticus
Methylscopolamine was dissolved in a vehicle (0.9% saline) at a concentration of 1 mg/kg (10 m/kg) and administered subcutaneously to the back of the neck. After 30 minutes, pilocarpine was dissolved in a vehicle (0.9% saline) at a concentration of 320 mg/kg (10 ml/kg) and administered intraperitoneally.
In the case of the drug-administered experimental groups 10 minutes after onset of status epilepticus, valproic acid and Test Compound were administered 10 minutes after onset of status epilepticus. […]
In the case of the drug-administered experimental groups 10 minutes after onset of status epilepticus, Test Compound was administered intraperitoneally at a dose of 25 mg/kg (10 ml/kg). At the same time point, valproic acid (positive control group) was administered intraperitoneally at a dose of 200 mg/kg (10 ml/kg). […]
In the case of the drug-administered experimental groups 10 minutes after onset of status epilepticus, the effects of the compound were represented as the mean±standard error, and statistical significance was recognized when there was a difference of p<0.05 in data using one-way ANOVA and a Tukey's test as a post-hoc test.

[3] = Early SLE, treatment started 10-15 min after occurrence of SLE, n=5
[4] = Early and late SLEs, 100 μM treated 10-15 minutes after occurrence of SLE, compared to after washing
[5] = Late SLE (after 1 hour in low Mg2+ ACSF), n=8
[6] = Drug administration 10 min after onset of status epilepticus, 200 mg/kg i.p., observed 50 min, mean±standard error

Compound	Duration of SLE in comparison with before treatment of Test Compound, during treatment [1, 3] [%]	Number of SLE in comparison with before treatment of Test Compound, during treatment [1, 3] [%]	Duration of SLE in comparison with before treatment of Test Compound, after washing ([1]; Early SLE, n=5) [%]	Number of SLE in comparison with before treatment of Test Compound, after washing ([1]; Early SLE, n=5) [%]	Duration of SLE, result in words [1, 4]	Number of SLE, result in words [1, 4]	Duration of SLE in comparison with before treatment of Test Compound, during treatment [1, 5] [%]	Number of SLE in comparison with before treatment of Test Compound, during treatment [1, 5] [%]	Duration of SLE in comparison with before treatment of Test Compound, after washing ([1]; Late SLE, n=8) [%]	Number of SLE in comparison with before treatment of Test Compound, after washing ([1]; Late SLE, n=8) [%]	Mortality, result in words ([2]; 20 mg/kg i.p. immediately after occurrence of status epilepticus, compared to the control group)	Mortality ([2]; Drug administration 10 min after onset of status epilepticus, 25 mg/kg i.p.) [%]	Mortality ([2]; Drug administration immediately after onset of status epilepticus, 20 mg/kg i.p.) [%]	Mortality ([2]; Drug administration 10 min after onset of status epilepticus, 200 mg/kg i.p.) [%]	Seizure count [2, 6]	Seizure score (modified Racine score) [2, 6]
NC(=O)O[C@@H](Cn1ncnn1)c1ccccc1Cl [Test Compound, Carbamic acid (R)-1-(2-chlorophenyl)-2-tetrazol-2-yl-ethyl ester]	15.39 ± 6.82	31.45 ± 16.13	83.63 ± 5.14	91.99 ± 16.47	significantly reduced	significantly reduced	42.61 ± 3.50	62.12 ± 5.59	81.81 ± 13.78	92.36 ± 8.21	tendency to suppress mortality	0	0			
CCCC(CCC)C(=O)O [Positive control group, valproic acid, reference compound]														14	0.8 ± 0.18	3.2 ± 0.39
